Results taken from PubChem BioAssay (NCI).
Where “and” joins values, the source holds several entries; their conditions need not be identical. Identical values can stand only once.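 How tested: cells in 96-well plates exposed to compound for 48 hours at five concentrations. GI50 marks 50% less growth. TGI marks complete inhibition of growth.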

Tests used:
Assay in all cases: DTP human tumour cell line panel, 48 h
MDA-MB-468 breast = test system: MDA-MB-468 breast
A498 renal = test system: A498 renal
A549 NSCLC = test system: A549 NSCLC
ACHN renal = test system: ACHN renal
BT-549 breast = test system: BT-549 breast
COLO 205 colon = test system: COLO 205 colon
DU-145 prostate = test system: DU-145 prostate
EKVX NSCLC = test system: EKVX NSCLC
HCC-2998 colon = test system: HCC-2998 colon
HCT-116 colon = test system: HCT-116 colon
HCT-15 colon = test system: HCT-15 colon
HL-60(TB) leukemia = test system: HL-60(TB) leukemia
HS 578T breast = test system: HS 578T breast
IGROV1 ovarian = test system: IGROV1 ovarian
K-562 leukemia = test system: K-562 leukemia
KM12 colon = test system: KM12 colon
LOX IMVI melanoma = test system: LOX IMVI melanoma
M14 melanoma = test system: M14 melanoma
MALME-3M melanoma = test system: MALME-3M melanoma
MCF7 breast = test system: MCF7 breast
MDA-MB-231 breast = test system: MDA-MB-231 breast
MDA-MB-435 = test system: MDA-MB-435
MOLT-4 leukemia = test system: MOLT-4 leukemia
NCI-H460 lung = test system: NCI-H460 lung
NCI-H522 lung = test system: NCI-H522 lung
OVCAR-3 ovarian = test system: OVCAR-3 ovarian
OVCAR-4 ovarian = test system: OVCAR-4 ovarian
OVCAR-5 ovarian = test system: OVCAR-5 ovarian
OVCAR-8 ovarian = test system: OVCAR-8 ovarian
PC-3 prostate = test system: PC-3 prostate
RPMI-8226 leukemia = test system: RPMI-8226 leukemia
RXF 393 renal = test system: RXF 393 renal
SF-268 CNS = test system: SF-268 CNS
SF-295 CNS = test system: SF-295 CNS
SF-539 CNS = test system: SF-539 CNS
SK-MEL-2 melanoma = test system: SK-MEL-2 melanoma
SK-MEL-28 melanoma = test system: SK-MEL-28 melanoma
SK-MEL-5 melanoma = test system: SK-MEL-5 melanoma
SN12C renal = test system: SN12C renal
SNB-19 CNS = test system: SNB-19 CNS
SNB-75 CNS = test system: SNB-75 CNS
SW-620 colon = test system: SW-620 colon
T-47D breast = test system: T-47D breast
TK-10 renal = test system: TK-10 renal
U251 CNS = test system: U251 CNS
UACC-62 melanoma = test system: UACC-62 melanoma
UO-31 renal = test system: UO-31 renal

Work on CCN1C(=O)N(CC)C2C1NN=c1s/c(=C\c3cccnc3)c(=O)n12 (stereo not given) yielded a GI50 (MDA-MB-468 breast) of 0.363 µM and a TGI (MDA-MB-468 breast) of over 100 µM.

With N#Cc1cnc2cc(OC[C@H](O)CO)c(NC(=O)CC3CSSC3)cc2c1Nc1ccc(OCc2cccc(F)c2)c(Cl)c1 the GI50 (MDA-MB-468 breast) was 0.118 µM and the TGI (MDA-MB-468 breast) was 0.363 µM.

Work on CCN(Cc1ccc(F)c(F)c1)c1ccc(CO)c(Cl)c1 yielded a GI50 (MDA-MB-468 breast) of 0.0162 µM and a TGI (MDA-MB-468 breast) of 0.0438 µM.

With Cc1[c-]onc1C.Cc1[c-]onc1C.[Ag].[Ag].[NH-]S(=O)(=O)c1ccc(N=Nc2cc(N=Nc3ccc(S([NH-])(=O)=O)cc3)c3c(NC(=O)C(Cl)Cl)cccc3c2OC(=O)C(Cl)Cl)cc1 the GI50 (MDA-MB-468 breast) was 1.92 µM and the TGI (MDA-MB-468 breast) was 8.48 µM.

COc1cc(C2c3cc4c(cc3OC(N3CCCC3)C2C)OCO4)cc(OC)c1OC (stereo not given) showed a GI50 (MDA-MB-468 breast) of 0.416 µM and a TGI (MDA-MB-468 breast) of 54.8 µM.

O=C1OC(=O)C(c2c[nH]c3ccccc23)=C1c1c[nH]c2ccccc12 was tested, and the GI50 (MDA-MB-468 breast) was over 19.3 µM and the TGI (MDA-MB-468 breast) was over 25 µM.

With CC(C)NC[C@@H](C(=O)N1CCN(c2ncnc3c2[C@H](C)C[C@H]3O)CC1)c1ccc(Cl)cc1 the GI50 (MDA-MB-468 breast) was 0.112 µM and 0.134 µM and the TGI (MDA-MB-468 breast) was 0.582 µM and 2.19 µM.

COc1cccc(/C=C/C(=O)c2cccc(Nc3nc(Nc4ccccc4)nc(Nc4ccccc4)n3)c2)c1 showed a GI50 (MDA-MB-468 breast) of 2.5 µM and a TGI (MDA-MB-468 breast) of 11.3 µM.

Cc1ccc2c(ccc3c[n+]4c5ccccc5ccc4n32)c1 gave a GI50 (MDA-MB-468 breast) of 0.541 µM and a TGI (MDA-MB-468 breast) of 2.47 µM.

In the case of Cc1c(C(=O)/C=C/c2csc3ccccc23)[n+](=O)c2ccccc2n1[O-], the GI50 (MDA-MB-468 breast) is reported as 1.71 µM and the TGI (MDA-MB-468 breast) is reported as 3.6 µM.

Compound Cc1ccc(/C=C2\CN(C(=O)OC(C)(C)C)C/C(=C\c3ccc(C)cc3)C2=O)cc1 has a GI50 (MDA-MB-468 breast) of 0.0878 µM and a TGI (MDA-MB-468 breast) of over 100 µM.

COc1cc(Cl)cc(-c2nn(C(=O)NCCN3CCOCC3)cc2-c2ccncc2)c1 gave a GI50 (MDA-MB-468 breast) of 2 µM and a TGI (MDA-MB-468 breast) of 11.5 µM.

Work on C=CCc1c2c(c(OC)c3ccoc13)C(=O)/C(=C/c1ccccc1OC)O2 yielded a GI50 (MDA-MB-468 breast) of 2.46 µM and a TGI (MDA-MB-468 breast) of 7.85 µM.

In the case of CC1SC(c2c(Cl)cccc2Cl)N(NC(=O)c2[nH]c3ccc(F)cc3c2-c2ccccc2)C1=O (stereo not given), the GI50 (MDA-MB-468 breast) is reported as 3.72 µM and the TGI (MDA-MB-468 breast) is reported as 29.9 µM.

COC1(C(=O)N[C@@H](C)c2ccc(-n3cc(F)cn3)nc2)CCC(c2nc(C)cc(Nc3cc(C)[nH]n3)n2)CC1 (stereo not given in full) was tested, and the GI50 (MDA-MB-468 breast) was 1.98 µM and the TGI (MDA-MB-468 breast) was 6.96 µM.

ClCCn1c(CCl)nc2ccc(Cl)cc21 was tested, and the GI50 (MDA-MB-468 breast) was 1.68 µM and the TGI (MDA-MB-468 breast) was 3.42 µM.

In the case of COc1c(CCC[P+](c2ccccc2)(c2ccccc2)c2ccccc2)cc2c(c1OC)OCO2, the GI50 (MDA-MB-468 breast) is reported as 0.256 µM and the TGI (MDA-MB-468 breast) is reported as 1.18 µM.

CNC(=O)n1ccc2cc(Oc3ccnc(NC(=O)c4ccc(C5CCN(CCO)CC5)cc4)c3)c(OCCOC)cc21 was tested, and the GI50 (MDA-MB-468 breast) was 1.99 µM and the TGI (MDA-MB-468 breast) was 4.22 µM.

COC[C@@H](CC(C)C)N=C1NC(=O)/C(=C/c2ccc3ncsc3c2)N1 was tested, and the GI50 (A498 renal) was 1.93 µM, the TGI (A498 renal) was 7.93 µM and the GI50 (A549 NSCLC) was 2.03 µM. It also gave a TGI (A549 NSCLC) of over 100 µM, a GI50 (ACHN renal) of 2.46 µM and a TGI (ACHN renal) of 11.4 µM. It also gave a GI50 (BT-549 breast) of 1.56 µM, a TGI (BT-549 breast) of 7.59 µM and a GI50 (COLO 205 colon) of 1.94 µM. It also gave a TGI (COLO 205 colon) of 6.28 µM, a GI50 (DU-145 prostate) of 3.06 µM and a TGI (DU-145 prostate) of over 100 µM. It also gave a GI50 (EKVX NSCLC) of 3.27 µM, a TGI (EKVX NSCLC) of 75.8 µM and a GI50 (HCC-2998 colon) of 4.03 µM. The TGI (HCC-2998 colon) was 56.4 µM, the GI50 (HCT-116 colon) was 1.45 µM and the TGI (HCT-116 colon) was 66.4 µM. The GI50 (HCT-15 colon) was 2.66 µM, the TGI (HCT-15 colon) was over 100 µM and the GI50 (HL-60(TB) leukemia) was 3.11 µM. The TGI (HL-60(TB) leukemia) was 8.36 µM, the GI50 (HS 578T breast) was 2.26 µM and the TGI (HS 578T breast) was 8.33 µM. For the same compound, the GI50 (IGROV1 ovarian) was 2.42 µM, the TGI (IGROV1 ovarian) was 22 µM and the GI50 (K-562 leukemia) was 2.8 µM. It also gave a TGI (K-562 leukemia) of over 100 µM, a GI50 (KM12 colon) of 3.19 µM and a TGI (KM12 colon) of 34.5 µM. The GI50 (LOX IMVI melanoma) was 2.57 µM, the TGI (LOX IMVI melanoma) was over 100 µM and the GI50 (M14 melanoma) was 3.88 µM. It also gave a TGI (M14 melanoma) of 22 µM, a GI50 (MALME-3M melanoma) of 2.53 µM and a TGI (MALME-3M melanoma) of 7.29 µM. It also gave a GI50 (MCF7 breast) of 2.64 µM, a TGI (MCF7 breast) of over 100 µM and a GI50 (MDA-MB-231 breast) of 3.65 µM. The TGI (MDA-MB-231 breast) was over 100 µM, the GI50 (MDA-MB-435) was 3.56 µM and the TGI (MDA-MB-435) was 18.7 µM. It also gave a GI50 (MDA-MB-468 breast) of 1.98 µM, a TGI (MDA-MB-468 breast) of 10.8 µM and a GI50 (MOLT-4 leukemia) of 2.68 µM. It also gave a TGI (MOLT-4 leukemia) of 15.4 µM, a GI50 (NCI-H460 lung) of 3.08 µM and a TGI (NCI-H460 lung) of over 100 µM. The GI50 (NCI-H522 lung) was 1.16 µM, the TGI (NCI-H522 lung) was 4.89 µM and the GI50 (OVCAR-3 ovarian) was 1.22 µM. The TGI (OVCAR-3 ovarian) was 4.32 µM, the GI50 (OVCAR-4 ovarian) was 6.14 µM and the TGI (OVCAR-4 ovarian) was 79.3 µM. It also gave a GI50 (OVCAR-5 ovarian) of 3.04 µM, a TGI (OVCAR-5 ovarian) of over 100 µM and a GI50 (OVCAR-8 ovarian) of 2.88 µM. It also gave a TGI (OVCAR-8 ovarian) of over 100 µM, a GI50 (PC-3 prostate) of 3.9 µM and a TGI (PC-3 prostate) of 52.7 µM. The GI50 (RPMI-8226 leukemia) was 2.8 µM, the TGI (RPMI-8226 leukemia) was 9.52 µM and the GI50 (RXF 393 renal) was 1.91 µM. The TGI (RXF 393 renal) was 4.96 µM, the GI50 (SF-268 CNS) was 3.41 µM and the TGI (SF-268 CNS) was 19 µM. For the same compound, the GI50 (SF-295 CNS) was 3.46 µM, the TGI (SF-295 CNS) was over 100 µM and the GI50 (SF-539 CNS) was 1.04 µM. For the same compound, the TGI (SF-539 CNS) was 4.54 µM, the GI50 (SK-MEL-2 melanoma) was 1.88 µM and the TGI (SK-MEL-2 melanoma) was 4.32 µM. It also gave a GI50 (SK-MEL-28 melanoma) of 2.69 µM, a TGI (SK-MEL-28 melanoma) of 8.69 µM and a GI50 (SK-MEL-5 melanoma) of 2.8 µM. The TGI (SK-MEL-5 melanoma) was 8.85 µM, the GI50 (SN12C renal) was 2.71 µM and the TGI (SN12C renal) was 30 µM. For the same compound, the GI50 (SNB-19 CNS) was 1.76 µM, the TGI (SNB-19 CNS) was 48.3 µM and the GI50 (SNB-75 CNS) was 1.04 µM. For the same compound, the TGI (SNB-75 CNS) was 6.75 µM, the GI50 (SW-620 colon) was 2.14 µM and the TGI (SW-620 colon) was 20 µM. For the same compound, the GI50 (T-47D breast) was 1.96 µM, the TGI (T-47D breast) was 9.01 µM and the GI50 (TK-10 renal) was 2.95 µM. It also gave a TGI (TK-10 renal) of over 100 µM, a GI50 (U251 CNS) of 2.58 µM and a TGI (U251 CNS) of over 100 µM. It also gave a GI50 (UACC-62 melanoma) of 2.19 µM, a TGI (UACC-62 melanoma) of 8.63 µM and a GI50 (UO-31 renal) of 2.36 µM. It also gave a TGI (UO-31 renal) of 6.7 µM.
